Results: patent US20230407243A1, “GENETIC PLATFORM TO INVESTIGATE THE FUNCTIONS OF BACTERIAL DRUG EFFLUX PUMPS” (priority 2022, published 2023)

Tests used:
Type in all cases: cell-based, Escherichia coli
[1] = tested on: wild-type E. coli K-12 str. BW25113; assay: microbe, parasite or virus in culture; settings: technical duplicate; for Minimum inhibitory concentration (MIC), K-12: Table 10, without pore; for Minimum Inhibitory Concentration, K-12: Table 13A, non-porinated
How it was run: (§1)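 Turbidity (OD600, pre-incubation subtracted) defined growth after 18 h at 37 °C in MHB II. The inoculum was diluted 1/2000 from an OD600 ~1.0 PBS suspension of an overnight LB culture. Compounds were run as duplicate twofold dilutions.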

[2] = tested on: E. coli ΔtolC; assay: microbe, parasite or virus in culture; settings: technical duplicate; for Minimum inhibitory concentration (MIC), ΔtolC: Table 10, without pore; for Minimum Inhibitory Concentration, ΔtolC: Table 13A, non-porinated
How it was run: as §1

[3] = tested on: E. coli EKO-35; assay: microbe, parasite or virus in culture; settings: for Fold change of MICs: EKO-35 compared to EKO-35 (reference); for Minimum inhibitory concentration (MIC), EKO-35: Table 10, without pore; for Minimum inhibitory concentration (MIC), EKO-35 / Minimum Inhibitory Concentration, EKO-35: technical duplicate; for Minimum Inhibitory Concentration, EKO-35: Table 13A, non-porinated
How it was run: as §1

[4] = tested on: EKO-35-Pore; assay: MIC susceptibility profiling, porinated strain; settings: for Fold changes of MICs: EKO-35-Pore compared to EKO-35-Pore (reference); for Minimum inhibitory concentration (MIC), Pore EKO-35: Table 10, with pore; for Minimum inhibitory concentration (MIC), Pore EKO-35 / Minimum inhibitory concentration, EKO-35-Pore: technical duplicate; for Minimum inhibitory concentration, EKO-35-Pore: Table 14A, porinated
How it was run: (§2)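 Strains carry the fhuA ΔC/Δ4L pore integrated between glmS and pstS under a constitutive promoter, with pore activity checked by vancomycin susceptibility. Overnight LB cultures were adjusted in PBS pH 7.4 to OD600 ~1.0 and diluted 1/2000 into MHB II. 2-fold compound titrations were read by OD600 after 18 h at 37 °C.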

[5] = tested on: ΔtolC-Pore; assay: microbe, parasite or virus in culture; settings: technical duplicate; for Minimum inhibitory concentration (MIC), Pore ΔtolC: Table 10, with pore; for Minimum inhibitory concentration, ΔtolC-Pore: Table 14A, porinated
How it was run: as §2

[6] = tested on: wild-type (WT) K-12-Pore; assay: microbe, parasite or virus in culture; settings: technical duplicate; for Minimum inhibitory concentration (MIC), Pore K-12: Table 10, with pore; for Minimum inhibitory concentration, K-12 (WT)-Pore: Table 14A, porinated
How it was run: as §2

[7] = tested on: EKO-35 araC::acrEF; assay: MIC susceptibility profiling, efflux platform; settings: for Fold change of MICs: EKO-35 araC::acrEF compared to EKO-35; for Minimum Inhibitory Concentration, EKO-35 araC::acrEF: Table 13A, non-porinated, technical duplicate
How it was run: as §1

[8] = tested on: EKO-35 araC::emrKY; assay: MIC susceptibility profiling, efflux platform; settings: for Fold change of MICs: EKO-35 araC::emrKY compared to EKO-35; for Minimum Inhibitory Concentration, EKO-35 araC::emrKY: Table 13B, non-porinated, technical duplicate
How it was run: as §1

[9] = tested on: EKO-35 araC::macAB; assay: MIC susceptibility profiling, efflux platform; settings: for Fold change of MICs: EKO-35 araC::macAB compared to EKO-35; for Minimum Inhibitory Concentration, EKO-35 araC::macAB: Table 13B, non-porinated, technical duplicate
How it was run: as §1

[10] = tested on: EKO-35 araC::mdtEF; assay: MIC susceptibility profiling, efflux platform; settings: for Fold change of MICs: EKO-35 araC::mdtEF compared to EKO-35; for Minimum Inhibitory Concentration, EKO-35 araC::mdtEF: Table 13A, non-porinated, technical duplicate
How it was run: as §1

[11] = tested on: EKO-35 araC::acrB; assay: MIC susceptibility profiling, efflux platform; settings: for Fold change of MICs: EKO-35 araC::acrB compared to EKO-35; for Minimum Inhibitory Concentration, EKO-35 araC::acrB: Table 13A, non-porinated, technical duplicate
How it was run: as §1

[12] = tested on: EKO-35 araC::acrD; assay: MIC susceptibility profiling, efflux platform; settings: for Fold change of MICs: EKO-35 araC::acrD compared to EKO-35; for Minimum Inhibitory Concentration, EKO-35 araC::acrD: Table 13A, non-porinated, technical duplicate
How it was run: as §1

[13] = tested on: EKO-35 araC::mexCD (MexCD from P. aeruginosa); assay: MIC susceptibility profiling, efflux platform; settings: for Fold change of MICs: EKO-35 araC::mexCD compared to EKO-35; for Minimum Inhibitory Concentration, EKO-35 araC::mexCD: Table 13B, non-porinated, technical duplicate
How it was run: as §1

[14] = tested on: EKO-35 araC::emrAB; assay: MIC susceptibility profiling, efflux platform; settings: for Fold change of MICs: EKO-35 araC::emrAB compared to EKO-35; for Minimum Inhibitory Concentration, EKO-35 araC::emrAB: Table 13B, non-porinated, technical duplicate
How it was run: as §1

[15] = tested on: EKO-35 araC::mdtBC; assay: MIC susceptibility profiling, efflux platform; settings: for Fold change of MICs: EKO-35 araC::mdtBC compared to EKO-35; for Minimum Inhibitory Concentration, EKO-35 araC::mdtBC: Table 13B, non-porinated, technical duplicate
How it was run: as §1

[16] = tested on: EKO-35 araC::acrBD408A; assay: MIC susceptibility profiling, efflux platform; settings: for Fold change of MICs: EKO-35 araC::acrBD408A compared to EKO-35; for Minimum Inhibitory Concentration, EKO-35 araC::acrBD408A: Table 13B, non-porinated, technical duplicate
How it was run: as §1

[17] = tested on: EKO-35 araC::acrBD408A Pore; assay: MIC susceptibility profiling, porinated efflux platform; settings: for Minimum inhibitory concentration: EKO-35 araC::acrBD408A Pore, technical duplicate
How it was run: as §2

[18] = tested on: EKO-35 araC::acrD Pore; assay: as above; settings: for Fold changes of MICs: EKO-35 araC::acrD Pore compared to EKO-35-Pore; for Minimum inhibitory concentration, EKO-35 araC::acrD Pore: Table 14A, porinated, technical duplicate
How it was run: as §2

[19] = tested on: EKO-35 araC::emrKY Pore; assay: as above; settings: for Fold changes of MICs: EKO-35 araC::emrKY Pore compared to EKO-35-Pore; for Minimum inhibitory concentration: EKO-35 araC::emrKY Pore, technical duplicate
How it was run: as §2

Nc1ccccc1SCc1nc(-c2ccc(Cl)cc2)no1 [compound 16]
Minimum inhibitory concentration (MIC), K-12 [1]: 320 µg/mL | Minimum Inhibitory Concentration, K-12 [1]: 320 µg/mL | Minimum inhibitory concentration (MIC), ΔtolC [2]: 10 µg/mL | Minimum Inhibitory Concentration, ΔtolC [2]: 10 µg/mL | Fold change of MICs [3]: 1 fold | Minimum inhibitory concentration (MIC), EKO-35 [3]: 10 µg/mL | Minimum Inhibitory Concentration, EKO-35 [3]: 10 µg/mL | susceptibility of EKO-35 to the compound ([3]; synthetic efflux substrates of FIG. 12): susceptible | Fold changes of MICs [4]: 1 fold | Minimum inhibitory concentration (MIC), Pore EKO-35 [4]: 5 µg/mL | Minimum inhibitory concentration, EKO-35-Pore [4]: 5 µg/mL | Minimum inhibitory concentration (MIC), Pore ΔtolC [5]: 5 µg/mL | Minimum inhibitory concentration, ΔtolC-Pore [5]: 5 µg/mL | Minimum inhibitory concentration (MIC), Pore K-12 [6]: 160 µg/mL | Minimum inhibitory concentration, K-12 (WT)-Pore [6]: 160 µg/mL | Fold change of MICs [7]: 32 fold | Minimum Inhibitory Concentration, EKO-35 araC::acrEF [7]: 320 µg/mL | Fold change of MICs [8]: 1 fold | Minimum Inhibitory Concentration, EKO-35 araC::emrKY [8]: 5 µg/mL | Fold change of MICs [9]: 1 fold | Minimum Inhibitory Concentration, EKO-35 araC::macAB [9]: 10 µg/mL | Fold change of MICs [10]: 16 fold | Minimum Inhibitory Concentration, EKO-35 araC::mdtEF [10]: 160 µg/mL | Fold change of MICs [11]: 32 fold | Minimum Inhibitory Concentration, EKO-35 araC::acrB [11]: 320 µg/mL | Fold change of MICs [12]: 1 fold | Minimum Inhibitory Concentration, EKO-35 araC::acrD [12]: 10 µg/mL | Fold change of MICs [13]: 16 fold | Minimum Inhibitory Concentration, EKO-35 araC::mexCD [13]: 160 µg/mL | Fold change of MICs [14]: 16 fold | Minimum Inhibitory Concentration, EKO-35 araC::emrAB [14]: 160 µg/mL | Fold change of MICs [15]: 1 fold | Minimum Inhibitory Concentration, EKO-35 araC::mdtBC [15]: 5 µg/mL | Fold change of MICs [16]: 1 fold | Minimum Inhibitory Concentration, EKO-35 araC::acrBD408A [16]: 10 µg/mL | Fold changes of MICs ([17]; EKO-35 araC::acrBD408A Pore compared to EKO-35-Pore): 1 fold | Minimum inhibitory concentration [17]: 5 µg/mL | Fold changes of MICs [18]: 1 fold | Minimum inhibitory concentration, EKO-35 araC::acrD Pore [18]: 5 µg/mL | Fold changes of MICs [19]: 1 fold | Minimum inhibitory concentration [19]: 2.5 µg/mL

O=C(Nc1ccccc1C(=O)Nc1nnc(C(F)(F)F)s1)c1ccccc1Cl [compound 19]
Minimum inhibitory concentration (MIC), K-12 [1]: 320 µg/mL | Minimum Inhibitory Concentration, K-12 [1]: 320 µg/mL | Minimum inhibitory concentration (MIC), ΔtolC [2]: 2.5 µg/mL | Minimum Inhibitory Concentration, ΔtolC [2]: 2.5 µg/mL | Fold change of MICs [3]: 1 fold | Minimum inhibitory concentration (MIC), EKO-35 [3]: 320 µg/mL | Minimum Inhibitory Concentration, EKO-35 [3]: 320 µg/mL | Fold changes of MICs [4]: 1 fold | Minimum inhibitory concentration (MIC), Pore EKO-35 [4]: 320 µg/mL | Minimum inhibitory concentration, EKO-35-Pore [4]: 320 µg/mL | Minimum inhibitory concentration (MIC), Pore ΔtolC [5]: 0.625 µg/mL | Minimum inhibitory concentration, ΔtolC-Pore [5]: 0.625 µg/mL | Minimum inhibitory concentration (MIC), Pore K-12 [6]: 320 µg/mL | Minimum inhibitory concentration, K-12 (WT)-Pore [6]: 320 µg/mL | Fold change of MICs [7]: 1 fold | Minimum Inhibitory Concentration, EKO-35 araC::acrEF [7]: 320 µg/mL | Fold change of MICs [8]: 1 fold | Minimum Inhibitory Concentration, EKO-35 araC::emrKY [8]: 320 µg/mL | Fold change of MICs [9]: 1 fold | Minimum Inhibitory Concentration, EKO-35 araC::macAB [9]: 320 µg/mL | Fold change of MICs [10]: 1 fold | Minimum Inhibitory Concentration, EKO-35 araC::mdtEF [10]: 320 µg/mL | Fold change of MICs [11]: 1 fold | Minimum Inhibitory Concentration, EKO-35 araC::acrB [11]: 320 µg/mL | Fold change of MICs [12]: 1 fold | Minimum Inhibitory Concentration, EKO-35 araC::acrD [12]: 320 µg/mL | Fold change of MICs [13]: 1 fold | Minimum Inhibitory Concentration, EKO-35 araC::mexCD [13]: 320 µg/mL | Fold change of MICs [14]: 1 fold | Minimum Inhibitory Concentration, EKO-35 araC::emrAB [14]: 320 µg/mL | Fold change of MICs [15]: 1 fold | Minimum Inhibitory Concentration, EKO-35 araC::mdtBC [15]: 320 µg/mL | Fold change of MICs [16]: 1 fold | Minimum Inhibitory Concentration, EKO-35 araC::acrBD408A [16]: 320 µg/mL | Minimum inhibitory concentration [17]: 320 µg/mL | Fold changes of MICs [18]: 1 fold | Minimum inhibitory concentration, EKO-35 araC::acrD Pore [18]: 320 µg/mL | Fold changes of MICs [19]: 1 fold | Minimum inhibitory concentration [19]: 320 µg/mL
